According to patent US11298333B1, “Methods of reducing the risk of cardiovascular events in a subject” (Amarin Pharmaceuticals Ireland Limited, priority 2018, dated 2022):

Key:
[1] = tested on: TG, non-HDL-C, LDL-C, HDL-C, apo B, hsCRP; assay: REDUCE-IT: fasting lipid, lipoprotein and inflammatory biomarkers over time; type: in vivo, human; conditions: Year 2; ITT
Description: Fasting Lipid Profile: The fasting lipid panel included: TG, TC, LDL-C, HDL-C, non-HDL-C, and VLDL-C. At all visits, LDL-C was calculated using the Friedewald equation. At Visit 1 and Visit 1.1 direct LDL-C were used if at the same visit TG >400 mg/dL (4.52 mmol/L). These LDL-C values were used for the evaluation of the LDL-C inclusion criterion (LDL-C qualifying measurements for randomization) and for the assessment of changes in the statin therapy when LDL-C was not at goal. […] In addition, irrespective of the TG levels, at Visit 2 (0 Months of Follow-up, baseline) and at Visit 4 (12 Months of Follow-up), LDL-C were measured by preparative ultracentrifugation. […] Hopkins LDL-C was calculated for each visit. […]
The fasting lipid panel was tested at Screening (Visit 1 or Visit 1.1), Randomization visit (Visit 2; Day 0), Visit 3 (Day 120; ˜4 Months) and all other follow-up visits including the last visit. For change from baseline to 1 year preparative ultracentrifugation measurements for LDL-C were analyzed, unless this value was missing. […] In addition, change from baseline to day 120 in LDL-C utilizing Friedewald's and Hopkins methods was analyzed, using the arithmetic mean of LDL-C obtained at Visit 2 (Day 0) and the preceding Visit 1 (or Visit 1.1). […] LDL-C according to Hopkins was calculated at each visit. […]

[2] = REDUCE-IT: blood pressure, repeated-measurements analysis of change from baseline; type: in vivo, human; conditions: 4 g per day; ITT; mixed effects model; exploratory
Description: Blood pressure was measured using a standardized process: • Patient sat for […] with feet flat on the floor and measurement arm supported so that the midpoint of the manometer cuff was at heart level; and • Used a mercury sphygmomanometer or automatic blood pressure device with an appropriately sized cuff with the bladder centered over the brachial artery.
Blood pressure was recorded to the nearest 2 mmHg mark on the manometer or to the nearest whole number on an automatic device. A blood pressure reading was repeated 1 to 2 minutes later, and the second reading recorded to the nearest 2 mmHg mark.
It is contemplated that a number of factors contribute to the significant reduction in the cardiovascular risk. Without intending to be bound by any particular theory, one of the contributing factors might relate to the dose and formulation of the icosapent ethyl administered to the patients, in marked contrast to previous studies of omega-3 fatty acid studies. An additional contributing factor could relate to the patients' blood pressure. […] These differences appear to be modest, but it is contemplated, that they might contribute to the benefits of icosapent ethyl. […]

Compound: CC/C=C\C/C=C\C/C=C\C/C=C\C/C=C\CCCC(=O)OCC [Icosapent Ethyl, eicosapentaenoic acid ethyl ester]
- Triglycerides median absolute change from baseline [1]: 85 mg/dL
- Average placebo-corrected reduction from baseline in diastolic blood pressure [2]: 0.5 mm Hg
- Average placebo-corrected reduction from baseline in systolic blood pressure [2]: 1.3 mm Hg
